# Test results published in patent US20220177538A1, “CO-AGONISTS AT GLP-1 AND GIP RECEPTORS SUITABLE FOR ORAL DELIVERY” (Novo Nordisk A/S, priority 2020, published 2022).
# Where two headings read alike, the source gives them in different places. Starred links: 1 amine or outer side, 2 acyl side, 3 side chain; linkers in the order of their positions; H or OH if unused. Non-standard residues stand in square brackets, D forms with d. Residues, ends and D or L forms follow the SMILES beside them. Groups on a side chain read outwards from the residue. *: point of attachment. C18 diacid = O=C(O)CCCCCCCCCCCCCCCCC(=O)*; γGlu = O=C(O)[C@H](CCC(=O)[*:2])N[*:1]; εLys = N[C@@H](CCCCN[*:1])C(=O)[*:2]; AEEA = NCCOCCOCC(=O)O; Aib = CC(C)(N)C(=O)O
# Key:
# human GLP-1 receptor = human GLP-1 receptor (Homo sapiens, UniProt P43220); test: In vitro functional potency, CRE luciferase reporter, whole BHK cells (hGLP-1R); type: cell-based; parameters: expressed in transfected cells; host or cells: BHK (parent line BHKTS13), clone BHK CRE luc2P hGLP-1R; details: BHK CRE luc2P hGLP-1R cells
# Chain of human GLP-1 receptor (P43220 24-463): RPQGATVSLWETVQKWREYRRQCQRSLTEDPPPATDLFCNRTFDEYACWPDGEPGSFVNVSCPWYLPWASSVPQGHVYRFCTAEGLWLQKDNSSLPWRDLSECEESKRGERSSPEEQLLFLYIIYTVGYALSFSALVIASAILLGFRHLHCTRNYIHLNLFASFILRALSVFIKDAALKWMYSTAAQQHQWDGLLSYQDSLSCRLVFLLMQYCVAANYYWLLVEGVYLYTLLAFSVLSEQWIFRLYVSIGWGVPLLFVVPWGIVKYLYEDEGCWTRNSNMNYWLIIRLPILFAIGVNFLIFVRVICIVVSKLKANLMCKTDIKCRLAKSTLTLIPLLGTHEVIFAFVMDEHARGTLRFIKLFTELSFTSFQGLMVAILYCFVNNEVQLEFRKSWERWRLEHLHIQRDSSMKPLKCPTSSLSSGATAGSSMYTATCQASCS
# Description: (§1) The in vitro functional potency is the measure of target receptor activation in a whole cell assay.
# (§2) In vitro functional potency was determined by measuring the response of the target receptor in a reporter gene assay in individual cell lines. […] When the respective receptor is activated, it results in the production of cAMP, which in turn results in expression of the luciferase protein. When assay incubation is completed, luciferase substrate (luciferin) is added resulting in the enzymatic conversion of luciferin to oxyluciferin and producing bioluminescence. The luminescence is measured as the readout for the assay.
# (§3) The cells lines used in these assays were BHK cells with BHKTS13 as a parent cell line. The cell lines were derived from a clone containing the CRE luciferase element and were established by further transfection with the respective human receptor to obtain the relevant cell line: BHK CRE luc2P hGLP-1R or BHK CRE luc2P hGIPR. The cells were cultured at 37° C. with 5% CO2 in Cell Culture Medium. They were aliquoted and stored in liquid nitrogen. The cells were kept in continuous culture and were seeded out the day before each assay.
# (§4) GLP-1R Cell Culture Medium consisted of DMEM medium with 10% FBS, 500 µg/mL G418, and 300 µg/mL hygromycin. GIPR Cell Culture Medium consisted of DMEM medium with 10% FBS, 400 µg/mL G418, and 300 µg/mL hygromycin. Assay Buffer consisted of DMEM w/o phenol red, 10 mM Hepes, 1× Glutamax. 1% ovalbumin, and 0.1% Pluronic F-68 with the addition of HSA at twice the final assay concentration.
# (§5) 1) Cells were plated at 5000 cells/well and incubated overnight in the assay plate. 2) Cells were washed once in DPBS. 3) Stocks of the test compounds and reference compounds in concentrations ranging from […] were diluted 1:150 in Assay Buffer. Compounds were then diluted 1:10 in column 1 of a 96 deep well dilution plate and then carried across the row creating a 3.5 fold, 12 point dilution curve. 4) Assay Buffer (50 μl aliquot) with or without HSA was added to each well in the assay plate. 5) A 50 μl aliquot of compound or blank was transferred from the dilution plate to the assay plate containing the Assay Buffer with or without HSA. 6) The assay plate was incubated for 3 h in a 5% CO2 incubator at 37° C. 7) The cells were washed once with DPBS. 8) A 100 μl aliquot of DPBS was added to each well of the assay plate. 9) A 100 μl aliquot of steadylite plus reagent (light sensitive) was added to each well of the assay plate. 10) Each assay plate was covered with aluminum foil to protect it from light and shaken at 250 RPM for 30 min at room temperature. 11) Each assay plate was read in a microtiter plate reader.
# (§6) The data from the microtiter plate reader was first regressed in an Excel in order to calculate the x-axis, log scale concentrations based on the individual test compound's stock concentration and the dilutions of the assay. […] The software performs a non-linear regression (log(agonist) vs response). A minimum of two replicates was measured for each sample. The reported values are averages of the replicates.
# human GIP receptor = biological target: T1, human GIP receptor (Homo sapiens, UniProt P48546); test: In vitro functional potency, CRE luciferase reporter, whole BHK cells (hGIPR); type: cell-based; details: BHK CRE luc2P hGIPR cells
# T1 construct: expressed in transfected cells; host or cells: BHK (parent line BHKTS13), clone BHK CRE luc2P hGIPR
# T1 sequence (P48546 22-466): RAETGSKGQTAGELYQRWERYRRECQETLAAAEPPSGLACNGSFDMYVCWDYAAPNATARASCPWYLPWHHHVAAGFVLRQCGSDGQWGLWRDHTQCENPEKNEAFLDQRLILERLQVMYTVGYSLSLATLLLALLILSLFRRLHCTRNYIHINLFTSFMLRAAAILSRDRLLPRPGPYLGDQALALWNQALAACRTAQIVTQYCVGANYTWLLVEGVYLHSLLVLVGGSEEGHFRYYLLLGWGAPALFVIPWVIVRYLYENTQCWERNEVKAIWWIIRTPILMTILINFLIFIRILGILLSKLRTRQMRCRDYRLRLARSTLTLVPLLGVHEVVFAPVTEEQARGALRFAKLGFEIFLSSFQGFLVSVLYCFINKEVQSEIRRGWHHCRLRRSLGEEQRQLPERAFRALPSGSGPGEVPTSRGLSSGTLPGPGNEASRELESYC
# Description: as §1, §2, §3, §4, §5, §6
# [1] = 0% HSA, read-out: hGLP-1R, CRE Luc 0% HSA EC50
# [2] = hGLP-1R, CRE Luc 1% HSA EC50, 1% HSA
# [3] = 0% HSA, read-out: hGIPR, CRE Luc 0% HSA EC50
# [4] = hGIPR, CRE Luc 1% HSA EC50, 1% HSA
Compound,EC50 (human GLP-1 receptor; [1]) [nM],EC50 (human GLP-1 receptor; [2]) [nM],EC50 (human GIP receptor; [3]) [nM],EC50 (human GIP receptor; [4]) [nM]
CC[C@H](C)[C@H](NC(=O)[C@H](Cc1ccccc1)NC(=O)[C@H](CCC(=O)O)NC(=O)[C@H](CCCNC(=N)N)NC(=O)[C@H](C)NC(=O)[C@H](C)NC(=O)[C@H](CCC(N)=O)NC(=O)[C@H](CCC(=O)O)NC(=O)[C@H](CCC(=O)O)NC(=O)[C@H](CC(C)C)NC(=O)[C@H](CC(C)C)NC(=O)[C@@H](NC(=O)[C@H](CO)NC(=O)[C@H](Cc1ccc(O)cc1)NC(=O)[C@H](CC(=O)O)NC(=O)[C@H](CO)NC(=O)[C@@H](NC(=O)[C@H](Cc1ccccc1)NC(=O)[C@@H](NC(=O)CNC(=O)[C@H](CCC(=O)O)NC(=O)C(C)(C)NC(=O)[C@@H](N)Cc1ccc(O)cc1)[C@@H](C)O)[C@@H](C)O)[C@@H](C)CC)C(=O)N[C@@H](CCC(=O)O)C(=O)N[C@@H](Cc1c[nH]c2ccccc12)C(=O)N[C@@H](CC(C)C)C(=O)N[C@@H](CC(C)C)C(=O)N[C@@H](C)C(=O)NCC(=O)NCC(=O)N1CCC[C@H]1C(=O)N[C@@H](CO)C(=O)N[C@@H](CCCCNC(=O)COCCOCCNC(=O)COCCOCCNC(=O)CC[C@H](NC(=O)CCCCCCCCCCCCCCCCC(=O)O)C(=O)O)C(=O)NCC(=O)N[C@@H](C)C(=O)N1CCC[C@H]1C(=O)N1CCC[C@H]1C(=O)N1CCC[C@H]1C(=O)N[C@@H](CO)C(=O)O [Compound 45] (H-Y[Aib]EGTFTSDYSILLEEQAAREFIEWLLAGGPSK([AEEA-AEEA-γGlu-C18 diacid])GAPPPS-OH),0.0039,1.58,0.0038,1.22
CC[C@H](C)[C@H](NC(=O)[C@H](Cc1ccccc1)NC(=O)[C@H](CCCCNC(=O)[C@@H](N)CCCCNC(=O)[C@@H](N)CCCCNC(=O)CC[C@H](NC(=O)CCCCCCCCCCCCCCCCC(=O)O)C(=O)O)NC(=O)[C@H](CCCNC(=N)N)NC(=O)[C@H](C)NC(=O)[C@H](C)NC(=O)[C@H](CCC(N)=O)NC(=O)[C@H](CCC(=O)O)NC(=O)[C@H](CCC(=O)O)NC(=O)[C@H](CC(C)C)NC(=O)[C@H](CC(C)C)NC(=O)[C@@H](NC(=O)[C@H](CO)NC(=O)[C@H](Cc1ccc(O)cc1)NC(=O)[C@H](CC(=O)O)NC(=O)[C@H](CO)NC(=O)[C@@H](NC(=O)[C@H](Cc1ccccc1)NC(=O)[C@@H](NC(=O)CNC(=O)[C@H](CCC(=O)O)NC(=O)C(C)(C)NC(=O)[C@@H](N)Cc1ccc(O)cc1)[C@@H](C)O)[C@@H](C)O)[C@@H](C)CC)C(=O)N[C@@H](CC(N)=O)C(=O)N[C@@H](Cc1c[nH]c2ccccc12)C(=O)N[C@@H](CC(C)C)C(=O)N[C@@H](CC(C)C)C(=O)N[C@@H](C)C(=O)NCC(=O)NCC(=O)N1CCC[C@H]1C(=O)N[C@@H](CO)C(=O)N[C@@H](CO)C(=O)NCC(=O)N[C@@H](C)C(=O)N1CCC[C@H]1C(=O)N1CCC[C@H]1C(=O)N1CCC[C@H]1C(=O)N[C@@H](CO)C(=O)O [Compound 39] (H-Y[Aib]EGTFTSDYSILLEEQAARK([εLys-εLys-γGlu-C18 diacid])FINWLLAGGPSSGAPPPS-OH),0.0082,0.135,0.0284,0.365
CC[C@H](C)[C@H](NC(=O)[C@H](Cc1ccccc1)NC(=O)[C@H](CCC(=O)O)NC(=O)[C@H](CCCNC(=N)N)NC(=O)[C@H](C)NC(=O)[C@H](C)NC(=O)[C@H](CCC(N)=O)NC(=O)[C@H](CCC(=O)O)NC(=O)[C@H](CCC(=O)O)NC(=O)[C@H](CC(C)C)NC(=O)[C@H](CC(C)C)NC(=O)[C@@H](NC(=O)[C@H](CO)NC(=O)[C@H](Cc1ccc(O)cc1)NC(=O)[C@H](CC(=O)O)NC(=O)[C@H](CO)NC(=O)[C@@H](NC(=O)[C@H](Cc1ccccc1)NC(=O)[C@@H](NC(=O)CNC(=O)[C@H](CCC(=O)O)NC(=O)C(C)(C)NC(=O)[C@@H](N)Cc1ccc(O)cc1)[C@@H](C)O)[C@@H](C)O)[C@@H](C)CC)C(=O)N[C@@H](CC(N)=O)C(=O)N[C@@H](Cc1c[nH]c2ccccc12)C(=O)N[C@@H](CC(C)C)C(=O)N[C@@H](CC(C)C)C(=O)N[C@@H](C)C(=O)NCC(=O)NCC(=O)N1CCC[C@H]1C(=O)N[C@@H](CO)C(=O)N[C@@H](CCCCNC(=O)[C@@H](N)CCCCNC(=O)[C@@H](N)CCCCNC(=O)CC[C@H](NC(=O)CCCCCCCCCCCCCCCCC(=O)O)C(=O)O)C(=O)NCC(=O)N[C@@H](C)C(=O)N1CCC[C@H]1C(=O)N1CCC[C@H]1C(=O)N1CCC[C@H]1C(=O)N[C@@H](CO)C(=O)O [Compound 44] (H-Y[Aib]EGTFTSDYSILLEEQAAREFINWLLAGGPSK([εLys-εLys-γGlu-C18 diacid])GAPPPS-OH),0.0042,0.241,0.0057,0.365
CC[C@H](C)[C@H](NC(=O)[C@H](Cc1ccccc1)NC(=O)[C@H](CCC(=O)O)NC(=O)[C@H](CCCNC(=N)N)NC(=O)[C@H](C)NC(=O)[C@H](C)NC(=O)[C@H](CCC(N)=O)NC(=O)[C@H](CCCCNC(=O)[C@@H](N)CCCCNC(=O)[C@@H](N)CCCCNC(=O)CC[C@H](NC(=O)CCCCCCCCCCCCCCCCC(=O)O)C(=O)O)NC(=O)[C@H](CCC(=O)O)NC(=O)[C@H](CC(C)C)NC(=O)[C@H](CC(C)C)NC(=O)[C@@H](NC(=O)[C@H](CO)NC(=O)[C@H](Cc1ccc(O)cc1)NC(=O)[C@H](CC(=O)O)NC(=O)[C@H](CO)NC(=O)[C@@H](NC(=O)[C@H](Cc1ccccc1)NC(=O)[C@@H](NC(=O)CNC(=O)[C@H](CCC(=O)O)NC(=O)C(C)(C)NC(=O)[C@@H](N)Cc1ccc(O)cc1)[C@@H](C)O)[C@@H](C)O)[C@@H](C)CC)C(=O)N[C@@H](CC(N)=O)C(=O)N[C@@H](Cc1c[nH]c2ccccc12)C(=O)N[C@@H](CC(C)C)C(=O)N[C@@H](CC(C)C)C(=O)N[C@@H](C)C(=O)NCC(=O)O [Compound 18] (H-Y[Aib]EGTFTSDYSILLEK([εLys-εLys-γGlu-C18 diacid])QAAREFINWLLAG-OH),0.0197,0.226,0.0209,0.285
